# Reference: PubChem BioAssay AID1845206 (Molecular Pharmacology Branch, DTP, NCI, 2023)
# Activity calls are given as the source filed them. Rule for the calls: active = viability on the fitted dose curve at most 10% of control; inactive = the rest.
# Tested on: NCI-H1618 multicellular tumor spheroid viability
# Test: Anticancer human tumor NCI-H1618 cell line growth inhibition;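 note: spheroids exposed to agents for 7 days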
# Settings: for IC50: curve of first compound; for viability, T/C: stronger effect = lower value
# Procedure, shortened: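 Complex tumor spheroids combined malignant cells with endothelial cells and mesenchymal stem cells. DNA-damaging drugs and DNA repair inhibitors were tested alone and in combination, at half-log dilutions down from clinical Cmax (top 10 microM if Cmax unknown), 0.25% DMSO final.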
# [1] = second compound 1 µM, first compound 0.0316 µM
# [2] = second compound 1 µM, first compound 0.1 µM
# [3] = second compound 1 µM, first compound 0.316 µM
# [4] = second compound 1 µM, first compound 1 µM
# [5] = second compound 1 µM, first compound 3.16 µM
# [6] = second compound 1 µM, first compound 10 µM
# [7] = second compound 3.16 µM, first compound 0.0316 µM
# [8] = second compound 3.16 µM, first compound 0.1 µM
# [9] = second compound 3.16 µM, first compound 0.316 µM
# [10] = second compound 3.16 µM, first compound 1 µM
# [11] = second compound 3.16 µM, first compound 3.16 µM
# [12] = second compound 3.16 µM, first compound 10 µM
# [13] = second compound 10 µM, first compound 0.0316 µM
# [14] = second compound 10 µM, first compound 0.1 µM
# [15] = second compound 10 µM, first compound 0.316 µM
# [16] = second compound 10 µM, first compound 1 µM
# [17] = second compound 10 µM, first compound 3.16 µM
# [18] = second compound 10 µM, first compound 10 µM
# [19] = second compound 31.6 µM, first compound 0.0316 µM
# [20] = second compound 31.6 µM, first compound 0.1 µM
# [21] = second compound 31.6 µM, first compound 0.316 µM
# [22] = second compound 31.6 µM, first compound 1 µM
# [23] = second compound 31.6 µM, first compound 3.16 µM
# [24] = second compound 31.6 µM, first compound 10 µM
# [25] = second compound 100 µM, first compound 0.0316 µM
# [26] = second compound 100 µM, first compound 0.1 µM
# [27] = second compound 100 µM, first compound 0.316 µM
# [28] = second compound 100 µM, first compound 1 µM
# [29] = second compound 100 µM, first compound 3.16 µM
# [30] = second compound 100 µM, first compound 10 µM
structure (smiles),measurement,setting,value
CC1COCCN1c1cc(-c2ccnn2C)c2ccnc(-c3ccn[nH]3)c2n1 (stereo not given) + Cn1nnc2c(C(N)=O)ncn2c1=O,IC50,second compound 1 µM,< 0.0316 µM
same,IC50,second compound 3.16 µM,< 0.0316 µM
same,IC50,second compound 10 µM,< 0.0316 µM
same,IC50,second compound 31.6 µM,< 0.0316 µM
same,IC50,second compound 100 µM,< 0.0316 µM
same,"viability, T/C",[1],3.35%
same,"viability, T/C",[2],3.94%
same,"viability, T/C",[3],1.49%
same,"viability, T/C",[4],2.09%
same,"viability, T/C",[5],1.02%
same,"viability, T/C",[6],3.48%
same,"viability, T/C",[7],10.3%
same,"viability, T/C",[8],1.64%
same,"viability, T/C",[9],1.41%
same,"viability, T/C",[10],1.67%
same,"viability, T/C",[11],1.26%
same,"viability, T/C",[12],2.12%
same,"viability, T/C",[13],1.82%
same,"viability, T/C",[14],13.4%
same,"viability, T/C",[15],1.48%
same,"viability, T/C",[16],1.19%
same,"viability, T/C",[17],1.65%
same,"viability, T/C",[18],2.14%
same,"viability, T/C",[19],1.23%
same,"viability, T/C",[20],1.26%
same,"viability, T/C",[21],1.34%
same,"viability, T/C",[22],1.03%
same,"viability, T/C",[23],1.36%
same,"viability, T/C",[24],1.55%
same,"viability, T/C",[25],1.42%
same,"viability, T/C",[26],1.23%
same,"viability, T/C",[27],1.48%
same,"viability, T/C",[28],1.42%
same,"viability, T/C",[29],13.7%
same,"viability, T/C",[30],1.05%
COc1cc(C)[nH]c(=O)c1CN1CCc2c(Cl)cc(C(OC)C3COC3)c(Cl)c2C1=O (stereo not given) + Cn1nnc2c(C(N)=O)ncn2c1=O,IC50,second compound 1 µM,> 10 µM
same,IC50,second compound 3.16 µM,< 0.0316 µM
same,IC50,second compound 10 µM,< 0.0316 µM
same,IC50,second compound 31.6 µM,< 0.0316 µM
same,IC50,second compound 100 µM,< 0.0316 µM
same,outcome,[1],inactive
same,"viability, T/C",[2],77.7%
same,outcome,[3],inactive
same,outcome,[4],inactive
same,"viability, T/C",[5],69.6%
same,"viability, T/C",[6],72.8%
same,"viability, T/C",[7],14.2%
same,"viability, T/C",[8],16.2%
same,"viability, T/C",[9],20.3%
same,"viability, T/C",[10],10.3%
same,"viability, T/C",[11],15.8%
same,"viability, T/C",[12],15.4%
same,"viability, T/C",[13],3.15%
same,"viability, T/C",[14],6.34%
same,"viability, T/C",[15],4.96%
same,"viability, T/C",[16],18.4%
same,"viability, T/C",[17],3.33%
same,"viability, T/C",[18],4.36%
same,"viability, T/C",[19],6.62%
same,"viability, T/C",[20],13.3%
same,"viability, T/C",[21],3.61%
same,"viability, T/C",[22],5.57%
same,"viability, T/C",[23],10.4%
same,"viability, T/C",[24],13%
same,"viability, T/C",[25],45.3%
same,"viability, T/C",[26],41.6%
same,"viability, T/C",[27],29.8%
same,"viability, T/C",[28],39.6%
same,"viability, T/C",[29],18.3%
same,"viability, T/C",[30],45.1%
COc1ccc([C@@H](O)c2cc(-c3ncnc4cc(N5CCOCC5)ccc34)c(F)cc2Cl)nn1 + Cn1nnc2c(C(N)=O)ncn2c1=O,IC50,second compound 1 µM,5.42 µM
same,IC50,second compound 3.16 µM,< 0.0316 µM
same,IC50,second compound 10 µM,< 0.0316 µM
same,IC50,second compound 31.6 µM,< 0.0316 µM
same,IC50,second compound 100 µM,< 0.0316 µM
same,"viability, T/C",[1],86.8%
same,"viability, T/C",[2],92%
same,"viability, T/C",[3],95.2%
same,outcome,[4],inactive
same,"viability, T/C",[5],72.6%
same,"viability, T/C",[6],24.2%
same,"viability, T/C",[7],26.6%
same,"viability, T/C",[8],27.2%
same,"viability, T/C",[9],17.2%
same,"viability, T/C",[10],22.2%
same,"viability, T/C",[11],5.58%
same,"viability, T/C",[12],6.14%
same,"viability, T/C",[13],3.36%
same,"viability, T/C",[14],5.1%
same,"viability, T/C",[15],5.03%
same,"viability, T/C",[16],5.47%
same,"viability, T/C",[17],5.06%
same,"viability, T/C",[18],5.28%
same,"viability, T/C",[19],8.19%
same,"viability, T/C",[20],12.4%
same,"viability, T/C",[21],14.6%
same,"viability, T/C",[22],17.1%
same,"viability, T/C",[23],5.03%
same,"viability, T/C",[24],5.45%
same,"viability, T/C",[25],20.6%
same,"viability, T/C",[26],34.8%
same,"viability, T/C",[27],63.5%
same,"viability, T/C",[28],35.5%
same,"viability, T/C",[29],20.1%
same,"viability, T/C",[30],12.2%
Cc1cc(C)c(CNC(=O)c2cc(-c3ccc(CN4CCOCC4)cc3)cc3c2cnn3C2CCCC2)c(=O)[nH]1 + Cn1nnc2c(C(N)=O)ncn2c1=O,IC50,second compound 1 µM,> 10 µM
same,IC50,second compound 3.16 µM,< 0.0316 µM
same,IC50,second compound 10 µM,< 0.0316 µM
same,IC50,second compound 31.6 µM,< 0.0316 µM
same,IC50,second compound 100 µM,< 0.0316 µM
same,"viability, T/C",[1],88.9%
same,"viability, T/C",[2],82.9%
same,"viability, T/C",[3],89.8%
same,outcome,[4],inactive
same,"viability, T/C",[5],82.3%
same,"viability, T/C",[6],78.8%
same,"viability, T/C",[7],24.3%
same,"viability, T/C",[8],13.1%
same,"viability, T/C",[9],16.6%
same,"viability, T/C",[10],22%
same,"viability, T/C",[11],14.7%
same,"viability, T/C",[12],19.3%
same,"viability, T/C",[13],4.25%
same,"viability, T/C",[14],19.8%
same,"viability, T/C",[15],10.5%
same,"viability, T/C",[16],3.64%
same,"viability, T/C",[17],5.17%
same,"viability, T/C",[18],4.06%
same,"viability, T/C",[19],18.2%
same,"viability, T/C",[20],20.3%
same,"viability, T/C",[21],20.4%
same,"viability, T/C",[22],5.16%
same,"viability, T/C",[23],13.7%
same,"viability, T/C",[24],12%
same,"viability, T/C",[25],34.9%
same,"viability, T/C",[26],63.6%
same,"viability, T/C",[27],52.6%
same,"viability, T/C",[28],46.8%
same,"viability, T/C",[29],66.2%
same,"viability, T/C",[30],44.2%
Cc1sc2c(c1C)C(c1ccc(Cl)cc1)=NC(CC(=O)Nc1ccc(O)cc1)c1nnc(C)n1-2 (stereo not given) + Cn1nnc2c(C(N)=O)ncn2c1=O,IC50,second compound 1 µM,0.783 µM
same,IC50,second compound 3.16 µM,< 0.00949 µM
same,IC50,second compound 10 µM,< 0.00949 µM
same,IC50,second compound 31.6 µM,< 0.00949 µM
same,IC50,second compound 100 µM,0.146 µM
same,"viability, T/C","second compound 1 µM, first compound 0.00949 µM",97.7%
same,"viability, T/C","second compound 1 µM, first compound 0.03 µM",20.7%
same,"viability, T/C","second compound 1 µM, first compound 0.0949 µM",90%
same,"viability, T/C","second compound 1 µM, first compound 0.3 µM",72%
same,"viability, T/C","second compound 1 µM, first compound 0.949 µM",45.9%
same,"viability, T/C","second compound 1 µM, first compound 3 µM",20.5%
same,"viability, T/C","second compound 3.16 µM, first compound 0.00949 µM",19.5%
same,"viability, T/C","second compound 3.16 µM, first compound 0.03 µM",35.3%
same,"viability, T/C","second compound 3.16 µM, first compound 0.0949 µM",49.1%
same,"viability, T/C","second compound 3.16 µM, first compound 0.3 µM",22.8%
same,"viability, T/C","second compound 3.16 µM, first compound 0.949 µM",5.18%
same,"viability, T/C","second compound 3.16 µM, first compound 3 µM",5.41%
same,"viability, T/C","second compound 10 µM, first compound 0.00949 µM",6.33%
same,"viability, T/C","second compound 10 µM, first compound 0.03 µM",21.3%
same,"viability, T/C","second compound 10 µM, first compound 0.0949 µM",5.98%
same,"viability, T/C","second compound 10 µM, first compound 0.3 µM",18.9%
same,"viability, T/C","second compound 10 µM, first compound 0.949 µM",2.4%
same,"viability, T/C","second compound 10 µM, first compound 3 µM",1.94%
same,"viability, T/C","second compound 31.6 µM, first compound 0.00949 µM",7.34%
same,"viability, T/C","second compound 31.6 µM, first compound 0.03 µM",9.11%
same,"viability, T/C","second compound 31.6 µM, first compound 0.0949 µM",17.6%
same,"viability, T/C","second compound 31.6 µM, first compound 0.3 µM",4.34%
same,"viability, T/C","second compound 31.6 µM, first compound 0.949 µM",1.89%
same,"viability, T/C","second compound 31.6 µM, first compound 3 µM",1.29%
same,"viability, T/C","second compound 100 µM, first compound 0.00949 µM",53.6%
same,"viability, T/C","second compound 100 µM, first compound 0.03 µM",78.7%
same,"viability, T/C","second compound 100 µM, first compound 0.0949 µM",70.3%
same,"viability, T/C","second compound 100 µM, first compound 0.3 µM",20.8%
same,"viability, T/C","second compound 100 µM, first compound 0.949 µM",6.16%
same,"viability, T/C","second compound 100 µM, first compound 3 µM",0.99%
[2H]c1nc(C)nc([2H])c1-c1cc(NC[C@@H](C)c2cccc3c(C(=O)NC)ccnc23)ncn1 + Cn1nnc2c(C(N)=O)ncn2c1=O,IC50,second compound 1 µM,> 10 µM
same,IC50,second compound 3.16 µM,< 0.0316 µM
same,IC50,second compound 10 µM,< 0.0316 µM
same,IC50,second compound 31.6 µM,< 0.0316 µM
same,IC50,second compound 100 µM,< 0.0316 µM
same,"viability, T/C",[1],91.3%
same,"viability, T/C",[2],91.9%
same,"viability, T/C",[3],85.3%
same,"viability, T/C",[4],85.3%
same,"viability, T/C",[5],89.2%
same,"viability, T/C",[6],89.3%
same,"viability, T/C",[7],33.1%
same,"viability, T/C",[8],29.5%
same,"viability, T/C",[9],21.9%
same,"viability, T/C",[10],28.1%
same,"viability, T/C",[11],13.1%
same,"viability, T/C",[12],27.3%
same,"viability, T/C",[13],4.05%
same,"viability, T/C",[14],4.95%
same,"viability, T/C",[15],5.87%
same,"viability, T/C",[16],7.24%
same,"viability, T/C",[17],4.35%
same,"viability, T/C",[18],11.5%
same,"viability, T/C",[19],20.8%
same,"viability, T/C",[20],19.9%
same,"viability, T/C",[21],11.3%
same,"viability, T/C",[22],15.1%
same,"viability, T/C",[23],6.28%
same,"viability, T/C",[24],5.54%
same,"viability, T/C",[25],61.9%
same,"viability, T/C",[26],36.3%
same,"viability, T/C",[27],22.1%
same,"viability, T/C",[28],59%
same,"viability, T/C",[29],46.6%
same,"viability, T/C",[30],34.6%
